Key:
TLR8 = biological target: T1, TLR8 (Homo sapiens, UniProt Q9NR97); assay: In vitro human TLR8 binding reporter assay (HEK-Blue, NF-kB/AP1-inducible SEAP); assay type: cell-based; details: activity range symbols
T1 construct: host or cells: HEK-Blue cells (human HEK) co-expressing TLR8 and an NF-kB/AP1-inducible SEAP reporter
T1 sequence (Q9NR97 27-1041): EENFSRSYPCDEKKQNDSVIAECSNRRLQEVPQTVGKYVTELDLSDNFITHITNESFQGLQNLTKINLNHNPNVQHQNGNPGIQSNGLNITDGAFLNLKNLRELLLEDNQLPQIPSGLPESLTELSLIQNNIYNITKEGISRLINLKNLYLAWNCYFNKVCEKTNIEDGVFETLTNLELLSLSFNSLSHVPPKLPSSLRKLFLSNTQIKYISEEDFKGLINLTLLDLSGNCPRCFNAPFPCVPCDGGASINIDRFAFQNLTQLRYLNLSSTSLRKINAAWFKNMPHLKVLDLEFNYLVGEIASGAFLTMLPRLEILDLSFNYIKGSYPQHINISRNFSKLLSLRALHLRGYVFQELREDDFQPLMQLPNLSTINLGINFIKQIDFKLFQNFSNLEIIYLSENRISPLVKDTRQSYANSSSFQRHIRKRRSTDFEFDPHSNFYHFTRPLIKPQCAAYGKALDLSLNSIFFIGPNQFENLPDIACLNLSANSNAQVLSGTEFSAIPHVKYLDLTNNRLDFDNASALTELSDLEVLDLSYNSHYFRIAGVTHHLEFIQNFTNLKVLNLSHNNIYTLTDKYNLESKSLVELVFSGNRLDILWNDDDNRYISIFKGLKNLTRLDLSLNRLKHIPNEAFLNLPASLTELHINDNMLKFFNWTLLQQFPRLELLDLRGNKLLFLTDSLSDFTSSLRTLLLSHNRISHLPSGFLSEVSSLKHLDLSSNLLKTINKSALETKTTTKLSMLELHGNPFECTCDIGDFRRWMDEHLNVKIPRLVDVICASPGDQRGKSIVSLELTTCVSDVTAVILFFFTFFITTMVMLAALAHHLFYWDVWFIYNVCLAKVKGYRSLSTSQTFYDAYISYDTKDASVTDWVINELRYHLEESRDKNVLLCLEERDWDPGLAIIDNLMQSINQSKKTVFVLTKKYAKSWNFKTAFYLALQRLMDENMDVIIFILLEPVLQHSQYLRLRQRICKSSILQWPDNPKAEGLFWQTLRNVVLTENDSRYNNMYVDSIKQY
Description: (§1) In Vitro Human TLR7 and TLR8 Binding Reporter Assays
(§2) Logarithmically-growing human HEK-Blue cells co-expressing a TLR7 or TLR8 gene and a NF-kB/AP1-inducible SEAP (secreted embryonic alkaline phosphatase; Invivogen, San Diego, CA) reporter gene are added to individual wells of a 384-well plate (15,000 cells per 20 μL per well) and maintained for 24 h at 37° C., 5% CO2. Test compounds or DMSO are distributed to separate wells the next day using acoustic liquid handling technology (100 nL per well) and cells are subsequently incubated for 18 h at 37° C., 5% CO2. Cellular SEAP production is measured using an Envision plate reader instrument thirty minutes after adding freshly-made Quanti-Blue reagent (prepared by following manufacturer instructions; Invivogen, San Diego, CA) to the HEK-Blue TLR Nf-kB-SEAP cell reactions. All EC50 values (half-maximal effective concentration) are determined using proprietary data analysis software.

TLR7 = biological target: T2, TLR7 (Homo sapiens, UniProt Q9NYK1); assay: In vitro human TLR7 binding reporter assay (HEK-Blue, NF-kB/AP1-inducible SEAP); assay type: cell-based; details: activity range symbols
T2 construct: host or cells: HEK-Blue cells (human HEK) co-expressing TLR7 and an NF-kB/AP1-inducible SEAP reporter
T2 sequence (Q9NYK1 27-1049): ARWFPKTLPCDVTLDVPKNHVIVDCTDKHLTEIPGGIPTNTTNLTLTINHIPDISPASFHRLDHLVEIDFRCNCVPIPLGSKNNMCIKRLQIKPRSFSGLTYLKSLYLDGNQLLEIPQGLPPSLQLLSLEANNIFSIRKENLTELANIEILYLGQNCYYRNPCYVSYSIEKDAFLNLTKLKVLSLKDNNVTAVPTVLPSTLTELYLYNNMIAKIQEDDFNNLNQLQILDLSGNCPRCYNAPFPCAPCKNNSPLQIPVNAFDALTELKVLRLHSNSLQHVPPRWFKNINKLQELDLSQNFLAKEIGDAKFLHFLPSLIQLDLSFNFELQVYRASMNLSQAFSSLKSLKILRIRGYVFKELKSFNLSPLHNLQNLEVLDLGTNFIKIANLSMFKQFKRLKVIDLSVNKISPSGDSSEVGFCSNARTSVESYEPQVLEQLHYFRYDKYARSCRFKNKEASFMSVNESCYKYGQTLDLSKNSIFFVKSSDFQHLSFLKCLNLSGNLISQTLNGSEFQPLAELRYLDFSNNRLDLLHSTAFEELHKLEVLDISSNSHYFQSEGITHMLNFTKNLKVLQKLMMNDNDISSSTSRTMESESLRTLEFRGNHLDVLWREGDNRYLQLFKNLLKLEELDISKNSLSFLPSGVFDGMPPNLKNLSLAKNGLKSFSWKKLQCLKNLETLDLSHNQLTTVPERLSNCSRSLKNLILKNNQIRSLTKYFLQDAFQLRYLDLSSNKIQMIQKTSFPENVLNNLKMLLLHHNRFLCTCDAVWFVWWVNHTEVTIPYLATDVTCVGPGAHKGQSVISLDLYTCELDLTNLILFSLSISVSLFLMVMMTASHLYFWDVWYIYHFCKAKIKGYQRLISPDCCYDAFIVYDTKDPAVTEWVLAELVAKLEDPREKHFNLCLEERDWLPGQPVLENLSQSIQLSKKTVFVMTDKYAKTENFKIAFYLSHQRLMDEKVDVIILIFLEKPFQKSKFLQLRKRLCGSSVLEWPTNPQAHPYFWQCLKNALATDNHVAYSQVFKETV
Description: as §1, §2

CCN(Cc1nc2c(N)nc3ccccc3c2n1CCC(=O)NC)C(C)=O [Compound 199]
EC50 (TLR8): > 100 µM | EC50 (TLR7): > 100 µM

From patent publication US12351580B2, “NLRP3 modulators” (Innate Tumor Immunity, Inc., priority 2017, dated 2025)
